Values of other authors, collected in patent US20220378803A1, “INJECTABLE COMPOSITIONS OF URSODEOXYCHOLIC ACID” (SHILPA MEDICARE LIMITED, priority 2019, published 2022).

## C[C@H](CCC(=O)O)[C@H]1CC[C@H]2[C@@H]3[C@@H](O)C[C@@H]4C[C@H](O)CC[C@]4(C)[C@H]3CC[C@]12C [UDCA, ursodeoxycholic acid]
  solubility in water: practically insoluble
